Data on one substance can be found in US10058633B2, “Biodegradable scaffolds” (Board of Regents of the University of Texas System, priority 2010, dated 2018).

In this assay the test system is Human umbilical vein endothelial cells (HUVEC). Briefly: Cellular uptake of FITC-BSA released from PLGA/pSi microspheres (transwell, confocal). The class given is cell-based. Conditions: 7 days. The procedure:
40,000 HUVEC were seeded and cultured on a glass coverslip in a 12 well plate with 500 million PLGA/pSi microspheres loaded with FITC-BSA in a transwell on top of the cells. The media were changed every 3 days. Cellular uptake of FITC-BSA released from the PLGA/pSi microspheres was observed by confocal microscopy staining cells with fluorescent phalloidin (actin filaments) and DRAQ5 (nuclei) after fixation (10% formaldehyde).
Detection of the FITC-BSA loaded pSi particles was based on autofluorescence using 488 excitation laser and the cells were analyzed by using 561 and 632 excitation laser for pholloidin and DRAQ5 respectively. Images were acquired using a Leica MD 6000 upright confocal microscope equipped with a 63× oil immersion objective.

As to “BSA in solution: control group: bovine serum albumin in solution”, the “BSA accumulation in cells” value was “did not show any BSA accommulation in cells”.
